The results in this text go back to patent US5780642A, “Imidazole derivatives as therapeutic agents” (KNOLL Aktiengesellschaft, priority 1993, dated 1998).

Counter-ions that a name gives are not always drawn. Like-named read-outs stand apart in the source and are kept apart here.

Assay [1] deals with Carrageenan-induced pleurisy (migrating leukocytes). The experiment in a line: Carrageenan-induced pleurisy in rats. In kind it is in vivo. The note with it: rat, p.o. at time of challenge and 24h and 48h thereafter. How it is done:
The most advantageous compounds of formula I were active in Tests A and B and also in the following test. Carrageenan-induced pleurisy in rats was carried out as described by Ackerman et al. J. Pharmacol. Exp. Therap. 1980, 215, 588-595. Migrating leukocytes were harvested by lavage of the thoracic cavity 72h after injection of 0.3 ml 1% λcarrageenan in sterile isotonic saline. Test compounds were administered p.o. at the time of challenge and 24h and 48 h thereafter.

In assay [2] the test system is Zymosan Stimulated Macrophages (arachidonic acid release). As to the kind of experiment: Test A: Inhibition of Arachidonic Acid Release from Zymosan Stimulated Macrophages. The class given is cell-based, mouse (female MF1 mice). The note with it: Mus musculus, Macrophage, read-out: Test A IC50. How it is done: Test A was carried out in the following way:
Inhibition of Arachidonic Acid Release from Zymosan Stimulated Macrophages
Female MF1 mice (weighing 20 to 25 g) were killed using a rising concentration of CO2. The mice were laid on their backs and the abdomens wiped with 70% alcohol. The skin was pulled back, exposing the peritoneal wall. Medium A (5 ml) (see below) was injected into the peritoneal cavity of each mouse followed by approximately 1 ml of air using a 20 ml syringe and a 21G×40 mm needle in order to form a suspension of macrophage cells. The medium and cells were then removed using a 19G×40 mm needle. The resulting suspension was returned to a sterile beaker kept on ice. The extracts from all the mice were pooled and this pooled cell suspension was counted using a Coulter counter and adjusted to a final cell count of 1-1.3×10^6 cells/ml prior to labelling with [^3 H]-arachidonic acid. Typically five mice provided sufficient cells for each multiwell plate.
Sufficient [^3 H]-arachidonic acid in ethanol to give a final concentration of 1.6 μCi/ml (equivalent to 40 μCi/plate) was blown to dryness under nitrogen. The arachidonic acid was then resuspended in 1 or 2 ml of the cell suspension which was then mixed with the remainder of the cell suspension in a centrifuge bottle. The labelled cell suspension was then plated out into sterile plastic 96 flat-bottomed well plates (250 μl per well) and incubated overnight at 37° C. in a moist atmosphere of 5% CO2, 95% air.
The following day, non-adherent cells were removed by washing 3 times with sterile phosphate buffered saline (PBS). The adherent peritoneal macrophages were then cultured for a further 24 hours in the presence or absence of drugs, in medium B (see below) at 37° in a 5% CO2 atmosphere in order to measure the effects of drugs on the spontaneous release of arachidonic acid in the absence of stimulus. After this incubation, supernatants were removed to give media 1 and stored in sealed multi-well plates at 4° C. prior to scintillation counting. Drugs which potentiated spontaneous release of arachidonic acid (125% of controls) were deemed to be toxic at the concentration at which this phenomenon occurred. The supernatants were replaced by fresh medium C containing fresh drug and a stimulus. Three drugs were tested at six concentrations (100, 50, 20, 10, 5 and 1 μM) in replicates of four on each plate. The other wells contained controls consisting of a positive control (e.g. dexamethasone), medium (B) only and medium C only.
Incubation was then continued for a further 5 hours, whereupon the supernatants were collected to give media 2 and the adherent cells washed with PBS. The cells were then lysed with 100 μl of 0.1% TRITON® X100 in a 0.1% solution of bovine serum albumin in 0.9% saline and mechanically disrupted to give cell lysates. These supernatants (media 2) and cell lysates (Cells) were also stored in sealed multi-well plates at 4° C. prior to scintillation counting. 200 μl aliquots of media, or 100 μl aliquots of cells were counted using 2 ml of OPTIPHASE "HIGH SAFE" (Trademark of LKB) as scintillant.
The percentage of arachidonic acid released was calculated using the mean values for each group of 4 wells in the following equation. [formula]
The value for the arachidonic acid release in the absence of stimulus (spontaneous, cpm of media 2) from cells which had been exposed to neither stimulus nor drug was subtracted from all equivalent values (cpm media 2, stimulated with or without drug) to give the net stimulated release. The percentage inhibition of arachidonic acid release caused by a drug may then be calculated using the following equation. [formula]
Compounds of formula I were tested at six concentrations (100, 50, 20, 10, 5 and 1 μM) and IC50 values calculated. Compounds with IC50 values≤100 μM are considered to be active. Advantageous compounds have an IC50 value<50 μM.
Medium A (for peritoneal lavage) […]

[3] abbreviates: inhibition of arachidonic acid release, zymosan stimulated mouse peritoneal macrophages, tested at 100, 50, 20, 10, 5 and 1 μM, ≤100 μM considered active.

As for `CC(C)(CNCCCn1ccnc1)Oc1ccc(Cl)cc1` [Example 1, 2-(4-chlorophenoxy)-3'-(imidazol-1-yl)-2-methyldipropylamine], the “activity in carrageenan-induced pleurisy at 10 mg/kg” value (“activity … at 10 mg/kg” below) in assay [1] is “active”. Also, the IC50 in assay [2] (setting [3]) was found to be 20 µM. Take `CCCCCCNC(=O)Cc1ccc(C(C)(C)NCCCn2ccnc2)cc1` [Example 29, N-Hexyl-4-{1-[3-(imidazol-1-yl)propylamino]-1-methylethyl}phenylacetamide]: the “activity … at 10 mg/kg” value in assay [1] is reported as “active”. Further, the IC50 in assay [2] (setting [3]) came to 15 µM.

On to `CC(C)(NCC(O)Cn1ccnc1)c1ccc(Cl)cc1` (stereo not shown) [Example 43, 1-[1-(4-chlorophenyl)-1-methylethylamino]-3-(imidazol-1-yl)propan-2-ol], for which the “activity in carrageenan-induced pleurisy at 3 mg/kg or lower” value in assay [1] is on record as “active”. Besides, the IC50 in assay [2] (setting [3]) came to 92 µM. Consider `CC(C)(NCCCn1ccnc1)c1ccc(CCNS(=O)(=O)c2ccccc2)cc1` [Example 56, N-[2-(4-{1-[3-(imidazol-1-yl)propylamino]-1-methylethyl}phenyl)ethyl]-benzenesulphonamide], for which the “activity … at 10 mg/kg” value in assay [1] was “active”. The IC50 in assay [2] came out at 8 µM. For the compound `CCC(CC)(NCCCn1cnc(CCNC(=O)c2ccccc2)c1)c1ccccc1` [Example 60, N-(2-{1-[3-(1-ethyl-1-phenylpropylamino)propyl]imidazol-4-yl}ethyl)benzamide], in assay [1], the “activity in carrageenan-induced pleurisy at 3 mg/kg or lower” value is on record as “active”. Besides, the IC50 in assay [2] (setting [3]) came to 17 µM. Consider `c1ccc(CCCNCCCCCn2ccnc2)cc1` [Example 81, N-(3-phenylpropyl)-5-imidazol-1-ylpentylamine 0.75 hydrate], for which the 50% inhibitory concentration (IC50) in assay [2] (setting [3]) worked out at 65 µM. On the same count and under the same terms, with `CCCCNCc1cn(CCCNC(C)(C)c2ccc(Cl)cc2)cn1` [Example 82, 3-[4-(butylaminomethyl)imidazol-1-yl]-N-[1-(4-chlorophenyl)-1-methylethyl]propylamine] the figure was 17 µM; with `CC(C)(NCc1ncc[nH]1)c1ccc(Cl)cc1` [Example 83, 1-(4-chlorophenyl)-N-(imidazol-2-ylmethyl)-1-methylethylamine], 90 µM; with `CC(C)(NCCCc1c[nH]cn1)c1ccc(Cl)cc1` [Example 84, N-[1-(4-chlorophenyl)-1-methylethyl]-3-(imidazol-4(5)-yl)propylamine], 15 µM. On to `CC(C)(NCCc1c[nH]cn1)c1ccc(Cl)cc1` [Example 85, 1-(4-chlorophenyl)-2'-(imidazol-4(5)-yl)-1-methyldiethylamine], for which, in assay [1], the “activity … at 10 mg/kg” value is given as “active”. Moreover, in assay [2] (setting [3]), the IC50 is 47 µM. For the compound `CC(C)(NCCCc1nccn1Cc1ccccc1)c1ccc(Cl)cc1` [Example 86, 3-(1-benzylimidazol-2-yl)-N-[1-(4-chlorophenyl)-1-methylethyl]propylamine], the IC50 in assay [2] (setting [3]) was 3 µM. On the same count and under the same terms, for `COc1ccc(OCC(C)(C)NCCCn2ccnc2)cc1` [Example 108, N-[2-(4-methoxyphenoxy)-1,1-dimethylethyl]-3-(imidazol-1-yl)propylamine dihydrochloride hydrate] the value was 100 µM.

Consider `CC(C)(COc1ccc(C2=NCCS2)cc1)NCCCn1ccnc1` [Example 109, N-[1,1-dimethyl-2-[4-(4,5-dihydrothiazol-2-yl)phenoxy]ethyl}-3-(imidazol-1-yl)propylamine dimaleate], for which the IC50 in assay [2] (setting [3]) came out at 33 µM.

For orientation: IC50 means the concentration that inhibits the measured activity by half.
